Patent US20250235148A1, “IBS RELATED TESTING AND TREATMENT” (IBS-80, LLC, priority 2021, published 2025)
Read-outs that look alike come from different tables or passages of the source.

What was measured:
[1] = system: skin of each patient; experiment: skin patch testing with the first 28 common test materials (Example 2); conditions: of 15 symptomatic patients (IBS or IBS-like symptoms)
[2] = system: skin of each patient; conditions: human, in vivo, 48 h

SMILES | patients with a positive patch test [1] | patients with a positive patch test [2]
C=C(C)[C@H]1CC=C(C)CC1 [dipentene] | 1 | –
CCCCCCCCCCCCOC(=O)c1cc(O)c(O)c(O)c1 [dodecyl gallate] | – | 1
O=C(OOC(=O)c1ccccc1)c1ccccc1 [benzoyl peroxide] | 1 | –
